Key:
SIN3A 3′UTR = assay: Dual-luciferase reporter assay (psiCHECK-2 vector with SIN3A 3′UTR) in HEK293T cells; type: cell-based; settings: HEK293T cells co-transfected with psiCHECK-2 and increasing concentrations of mimic; vs Scr
Text: FIG. 5: miR-138 regulates SIN3A in a dose-dependent and site-specific manner. HEK293T cells were co-transfected with the psiCHECK-2 vector (containing the SIN3A 3′UTR) and increasing concentrations of Scr or miR-138 mimic (Scr: non-targeting control oligonucleotide). To test site-specificity, the two predicted binding sites of miR-138 on SIN3A 3′UTR cloned in the psiCHECK-2 vector were mutated and the experiment repeated. Error bars indicate mean±SE; (n=4, 3 replicates each); *P<0.01, relative to Scr.
The 3′UTR of SIN3A was cloned into the Xho1/Not1 restriction enzyme sites in the 3′UTR of Renilla luciferase in the psiCHECK™-2 vector (Promega). HEK293T cells were cotransfected with 20 ng of psiCHECK-2 vector and different concentrations of miR-138 mimic. The Lipofectamine™ RNAiMAX (Invitrogen) reverse transfection protocol was used as described above. The miR-138 binding sites on the SIN3A 3′UTR were mutated using the site-directed, ligase-independent mutagenesis (SLIM) protocol (Chiu, J., Tillett, D., Dawes, I. W. & March, P. E. Site-directed, Ligase-Independent Mutagenesis (SLIM) for highly efficient mutagenesis of plasmids greater than 8 kb. J Microbiol. Methods 73, 195-198 (2008); Chiu, J., March, P. E., Lee, R. & Tillett, D. Site-directed, Ligase-Independent Mutagenesis (SLIM): a single-tube methodology approaching 100% efficiency in 4 h. Nucleic Acids Res. 32, (2004)). […]

CFTR = CFTR mRNA (RT-qPCR) and protein (immunoblot) in Calu-3 cells; type: cell-based, human; settings: mRNA 24 hrs, protein 72 hrs post-transfection
Description: Freshly dissociated human airway epithelial cells or immortalized cell lines were transfected in pre-coated 96 well plates (Costar) or Transwell™ Permeable Supports (0.33 cm^2 0.4 μm polyester membrane, Costar 3470). Lipofectamine™ RNAiMAX (Invitrogen) was used as a reverse transfection reagent. Pre-coated (with human placental collagen Type IV, Sigma) substrates were incubated with the transfection mix comprising of Opti-MEM (Invitrogen), oligonucleotide (Integrated DNA Technologies) and Lipofectamine™ RNAiMAX (Invitrogen). 15-20 minutes later, 200,000 freshly dissociated cells suspended in DMEM/F-12 were added to each well/insert. Between 4-6 hrs later, all media from the apical surface was aspirated and complete media added to the basolateral surface. […]
First-strand cDNA was synthesized using SuperScript® II (Invitrogen), and oligo-dT and random-hexamer primers. […] To quantitate miRNAs, TaqMan® microRNA Assays (Applied Biosystems) were obtained for miR-138, RNU48 (control) and 8 other miRNAs (negative control, miRs-21, -24, -26a, -200c, -146a, -146b, -27a*, -134). […] All experiments were performed in quadruplicate. mRNA and miRNA quantification in cell lines represents 8 independent transfections in 4 separate experiments. mRNA quantification in human primary airway epithelial cultures represent 8 independent transfections in 8 non-CF donors and 4 CF donors. […]

Substance	SIN3A expression (Renilla luciferase with SIN3A 3′UTR, normalized to firefly luciferase) (SIN3A 3′UTR)	CFTR mRNA and protein levels (CFTR)
miR-138 mimic: synthetic modified RNA duplex, sense SEQ ID NO: 4, antisense SEQ ID NO: 5, showing miR-138-like activity	repressed SIN3A expression in a dose-dependent manner	increased
SIN3A DsiRNA: Dicer-substrate siRNA against SIN3A, sense SEQ ID NO: 6, antisense SEQ ID NO: 7 (sense GCGAUACAUGAAUUCAGAUACUACC; antisense GGUAGUAUCUGAAUUCAUGUAUCGCUC; chemistry not given here)	–	increased

— patent publication US20150045410A1, “METHOD OF REGULATING CFTR EXPRESSION AND PROCESSING” (University of Iowa Research Foundation, priority 2012, published 2015)
